According to BindingDB's records for doi:10.1016/s0960-894x(01)00631-x (Novartis Pharma, 2001):

Biological target: Substance-P receptor (Bos taurus)
Test: In vitro binding affinity for Tachykinin receptor 1 of bovine retinal membranes using [3H]Sar9-substance P as radioligand

**Q.** `CN(C(=O)c1cc(C(F)(F)F)cc(C(F)(F)F)c1)[C@@H](/C=C/C(=O)N[C@@H]1CCCCNC1=O)Cc1cn(C)c2ccccc12` [N-Methyl-N-[(E)-(R)-1-(1-methyl-1H-indol-3-ylmethyl)-3-((R)-2-oxo-azepan-3-ylcarbamoyl)-allyl]-3,5-bis-trifluoromethyl-benzamide] was tested. Which IC50 did it give?
**A.** 0.5 nM

**Q.** Which IC50 does the source give for `CN(C(=O)c1cc(C(F)(F)F)cc(C(F)(F)F)c1)N(CCC(=O)N[C@@H]1CCCCNC1=O)Cc1ccc(Cl)c(Cl)c1` [3-[N'-(3,5-Bis-trifluoromethyl-benzoyl)-N-(3,4-dichloro-benzyl)-N'-methyl-hydrazino]-N-((R)-2-oxo-azepan-3-yl)-propionamide] here?
**A.** 1.4 nM

**Q.** Which IC50 does the source give for `CN(C(=O)c1cc(C(F)(F)F)cc(C(F)(F)F)c1)[C@@H](/C=C/C(=O)N[C@@H]1CCCCNC1=O)Cc1ccc2ccccc2c1` [N-Methyl-N-[(E)-(R)-1-naphthalen-2-ylmethyl-3-((R)-2-oxo-azepan-3-ylcarbamoyl)-allyl]-3,5-bis-trifluoromethyl-benzamide] here?
**A.** 1.1 nM

**Q.** How did the IC50 turn out when `CN(C(=O)c1cc(C(F)(F)F)cc(C(F)(F)F)c1)[C@@H](/C=C/C(=O)N[C@@H]1CCCCNC1=O)Cc1cc(Br)c(Br)s1` [N-[(E)-(R)-1-(4,5-Dibromo-thiophen-2-ylmethyl)-3-((R)-2-oxo-azepan-3-ylcarbamoyl)-allyl]-N-methyl-3,5-bis-trifluoromethyl-benzamide] was run?
**A.** 20 nM

**Q.** Which IC50 does the source give for `CN(C(=O)c1cc(C(F)(F)F)cc(C(F)(F)F)c1)N(CCC(=O)N[C@@H]1CCCCNC1=O)Cc1ccc2ccccc2c1` [3-[N'-(3,5-Bis-trifluoromethyl-benzoyl)-N'-methyl-N-naphthalen-2-ylmethyl-hydrazino]-N-((R)-2-oxo-azepan-3-yl)-propionamide] here?
**A.** 6.4 nM

**Q.** `CN(C(=O)c1cc(C(F)(F)F)cc(C(F)(F)F)c1)[C@@H](/C=C/C(=O)NC1(C(N)=O)CCCCC1)Cc1ccc(Cl)cc1` [N-[(E)-(R)-3-(1-Carbamoyl-cyclohexylcarbamoyl)-1-(4-chloro-benzyl)-allyl]-N-methyl-3,5-bis-trifluoromethyl-benzamide] was tested. Which IC50 did it give?
**A.** 1 nM

**Q.** For `CN(C(=O)c1cc(C(F)(F)F)cc(C(F)(F)F)c1)[C@@H](/C=C/C(=O)N[C@@H]1CCCCNC1=O)Cc1ccc(Cl)c(Cl)c1` [N-[(R,R)-(E)-(3,4-dichlorobenzyl)-3-(2-oxoazepan-3-yl)carbamoyl]allyl-N-methyl-3,5-bis(trifluoromethyl)benzamide], which IC50 is on record?
**A.** 4.8 nM

**Q.** For `CN(C(=O)c1cc(C(F)(F)F)cc(C(F)(F)F)c1)[C@@H](/C=C/C(=O)NC1CCCCCC1)Cc1ccc(Cl)cc1` [N-[(E)-(R)-1-(4-Chloro-benzyl)-3-cycloheptylcarbamoyl-allyl]-N-methyl-3,5-bis-trifluoromethyl-benzamide], which IC50 is on record?
**A.** 12 nM

**Q.** For `CN(C(=O)c1cc(C(F)(F)F)cc(C(F)(F)F)c1)N(CCC(=O)N[C@@H]1CCCCNC1=O)Cc1cc(Br)c(Br)s1` [3-[N'-(3,5-Bis-trifluoromethyl-benzoyl)-N-(4,5-dibromo-thiophen-2-ylmethyl)-N'-methyl-hydrazino]-N-((R)-2-oxo-azepan-3-yl)-propionamide], which IC50 is on record?
**A.** 18 nM
